Source: US20260072027A1, “Peptides And Method” (Queen Mary University of London, priority 2022, published 2026)
Where no end group is shown, it is not given here.

Test system: serum IgG autoantibodies
Assay: ELISA for autoantibody detection: serum antibody binding to native and oxPTM insulin peptides
Parameters: species or system human
Conditions: for % binders, Healthy controls / Mean ± SEM (absorbance, OD), Healthy controls / % binders, Type 1 diabetes: Study cohort 1; for % binders, Healthy controls / Mean ± SEM (absorbance, OD), Healthy controls / % binders, Type 1 diabetes / Mean ± SEM (absorbance, OD), Type 1 diabetes: in house modifications; for % binders, Type 1 diabetes: cut-off = mean of healthy controls to Nt-INSP plus 3 SEM; for Mean ± SEM (absorbance, OD), Type 1 diabetes: Study cohort 1 sera; for Antibody reactivity of serum samples (in words): ELISA; for type 1 diabetes binders (IgG autoantibody reactivity): Study cohort 2, N = 18
Procedure: ELISA for autoantibody detection. The ELISA analysis of Nt-INS and oxPTM-INS autoantibodies was performed as previously described [18](detailed in ESM methods, ELISA assay for antibody detection).
Statistical analyses. Statistical analyses were performed using Prism Software 9.0 (GraphPad, San Diego, CA, USA). Cut-off points of positivity (binders) in the antibody ELISA for each peptide were defined by the mean of optical absorbance (O.D) of healthy controls to the corresponding Nt-INSP plus three times the standard error of the mean (SEM). Specificity and sensitivity were evaluated by receiver operating characteristic (ROC) curve analysis. Area under the curve (AUC) is reported as absolute value and was tested for equality according to DeLong et al. Differences in antibody levels and T-cell stimulation indices (SI) between groups were tested by the One way ANOVA or Student's t-tests as appropriate. Correlation analyses were tested by Pearson or Spearman's test, as appropriate. Categorical analyses were performed by Chi-square or McNemar's tests, as appropriate. For each set of experiments, p values were adjusted for multiple comparison using the Holm-Sidak's test. Hierarchical cluster and Principal Component Analysis (PCA) was done using Clustvis software (https://biit.cs.ut.ee/clustvis/) and Prism Software 9.0, respectively.
Antibody reactivity of type 1 diabetes serum against the candidate oxPTM-INSP. Identified peptide candidates were synthesised and exposed to either HOCl or ^●OH to generate oxPTM-INSPs that were first assessed by TOF-MS/ES+TIC to confirm modification (FIG. 17). Antibody response against native INSPs (Nt-INSPs) and oxPTM-INSPs was evaluated by ELISA using sera from Study cohort 1.
ESM Methods ELISA assay for antibody detection. The ELISA analysis of native (Nt-INS) and modified insulin (oxPTM-INS) was performed as previously described. Briefly, the ELISA plate was coated overnight at 4° C. with 100 μl per well of modified or native insulin in 0.05 M carbonate/bicarbonate buffer pH 9.6 at 10 μg/ml. The next day, the plates were washed 3 times with 0.1% Tween PBS, followed by blocking for 2 hours at room temperature with 200 μl per well of 5% BSA in 0.1% Tween PBS. After washing, 100 μl of 1:200-diluted serum samples in 5% BSA-0.1% Tween PBS were added for additional 2 hours incubation. ELISA plates were then washed 3 times with 0.1% Tween PBS followed by probing with anti-human IgG horse radish peroxidase conjugated (HRP, Sigma) at 1:1,000 dilution in 5% BSA-0.1% Tween PBS for another 1.5 hours incubation. The ELISA plates were washed, and 100 μg/ml TMB substrate in 0.1M sodium acetate pH 6.0 plus 2 μl/10 ml of H2O2, were added. Subsequently, the reaction was stopped with 20% v/v sulphuric acid. The optical density (O.D.) was measured at 450 nm using a GENios plate reader and Magellan software (TECAN, Dorset, UK).

| Substance | % binders, Healthy controls | Mean ± SEM (absorbance, OD), Healthy controls | % binders, Type 1 diabetes | Mean ± SEM (absorbance, OD), Type 1 diabetes | Mean ± SEM (absorbance, OD), Type 1 diabetes (listed as HOCl-modified oxPTM-INSP-4) | type 1 diabetes binders (IgG autoantibody reactivity) | Antibody reactivity of serum samples (in words) |
| --- | --- | --- | --- | --- | --- | --- | --- |
| INSP-3 oxPTM-HOCI: INSP-3 peptide oxidised in house by HOCl (SLYQLENYCN; not fully specified (N-terminus); also: oxidised by HOCl, modified residues not defined) | 40% | 0.452 ± 0.048 | 53% | 0.473 ± 0.037 |  |  |  |
| FVNQHLC [INSP-5, insulin B:1-7 peptide] |  |  |  |  |  |  | No significant reactivity |
| LVEALYLVCG |  |  |  |  |  |  | No reactivity |
| ^●OH-INS: insulin modified by hydroxyl radical |  |  |  |  |  | 50% |  |

The next lines start with results.

| % binders, Healthy controls | Mean ± SEM (absorbance, OD), Healthy controls | % binders, Type 1 diabetes | Mean ± SEM (absorbance, OD), Type 1 diabetes | Mean ± SEM (absorbance, OD), Type 1 diabetes (listed as HOCl-modified oxPTM-INSP-4) | type 1 diabetes binders (IgG autoantibody reactivity) | Substance | Antibody reactivity of serum samples (in words) |
| --- | --- | --- | --- | --- | --- | --- | --- |
| 27% | 0.296 ± 0.022 | 66% | 0.563 ± 0.053 | 0.563±0.053 |  | INSP-4 oxPTM-HOCI: INSP-4 peptide oxidised in house by HOCl (LVEALYLVCGERGFFYTPKT; also: oxidised by HOCl, modified residues not defined) |  |
| 27% | 0.344 ± 0.022 | 58% | 0.539 ± 0.068 |  |  | INSP-4 oxPTM-•OH: INSP-4 peptide oxidised in house by hydroxyl radical (LVEALYLVCGERGFFYTPKT; also: oxidised by hydroxyl radical, modified residues not defined) |  |
|  |  |  |  |  | 33.3% | Nt-INS: native human recombinant insulin |  |
| 25% | 0.312 ± 0.019 | 43% | 0.391 ± 0.013 |  |  | INSP-6 oxPTM-HOCI: INSP-6 peptide oxidised in house by HOCl (ERGFFYTPKT; not fully specified (N-terminus); also: oxidised by HOCl, modified residues not defined) |  |
